Data as given in ChEMBL document CHEMBL5252511 (J Med Chem, 2016).

Columns and labels:
[1] = Permeability of compound at pH 7.4 by PAMPA assay; assay type: ADME; conditions: read-out: permeability
[2] = Permeability of compound at pH 5.5 by PAMPA assay; assay type: ADME; conditions: read-out: permeability
[3] = Drug exposure in brain of triple transgenic C57BL/6 mouse alzheimer disease model at 30 mg/kg,po and measured after 2 hrs; assay type: ADME, organism-based; conditions: read-out: Ct
[4] = Permeability across apical to basolateral side in human Caco2 cells; assay type: ADME, cell-based; conditions: Caco-2, read-out: permeability
[5] = Permeability across basolateral to apical side in human Caco2 cells; assay type: ADME, cell-based; conditions: Caco-2, read-out: permeability
[6] = Ratio of drug concentration in brain to plasma of triple transgenic C57BL/6 mouse alzheimer disease model at 30 mg/kg,po and measured after 2 hrs; assay type: ADME, organism-based
[7] = Drug exposure in plasma of triple transgenic C57BL/6 mouse alzheimer disease model at 30 mg/kg,po and measured after 2 hrs; assay type: ADME, organism-based

Papp [1]	Papp [2]	concentration at 2 h [3]	Papp A→B [4]	Papp B→A [5]	Kp at 2 h [6]	concentration at 2 h [7]	SMILES
48.3 ×10⁻⁶ cm/s	52.6 ×10⁻⁶ cm/s	440 nM	31.9 ×10⁻⁶ cm/s	30.1 ×10⁻⁶ cm/s	0.2		O=C(Nc1cnccc1-c1ccccc1)c1ccnc(NC(=O)C2CC2)c1
126 ×10⁻⁶ cm/s	90.4 ×10⁻⁶ cm/s		35.4 ×10⁻⁶ cm/s	27.9 ×10⁻⁶ cm/s			O=C(Nc1cnccc1-c1ccc(Cl)cc1)c1ccnc(NC(=O)C2CC2)c1
						47 nM	CCOc1ccncc1NC(=O)c1ccnc(NC(=O)C2CC2)c1
